Assay results: US8097585B2, “Methods of treating inflammation by administration of heme oxygenase-1 and products of heme degradation” (priority 2002, dated 2012)
“Also recorded” adds a separate entry of the source. Where a name gives a salt, the structure may show the parent alone.

How the values were obtained:
[1] = system: jejunal circular muscle strips; assay: Jejunal circular muscle contractility after small intestinal transplantation (organ bath); type: in vivo, LEW rats
Procedure: Small Intestinal Transplantation. Orthotopic small intestinal transplantation (SITx) was performed in syngeneic Lewis rats. SITx with caval drainage was performed using a previously described procedure (Murase et al., in Handbook of Animal Models in Transplantation Research, Cramer et al., Eds. CRC Press, Boca Raton, Fla., pp. 203-213 (1994)). […] The graft was perfused via the aortic segment with 5 ml chilled Ringer's lactate solution, and the intestinal lumen was irrigated with 20 ml of cold saline solution containing 0.5% neomycin-sulfate (Sigma, St. Louis, Mo.). End-to-side anastomoses between the graft aorta and the recipient infrarenal aorta, and between the graft portal vein and recipient vena cava, were performed with 10-0 Novafil™ suture. The cold ischemic time was 1 hour. The entire recipient intestine was removed and the enteric continuity was restored by proximal and distal end-to-end intestinal anastomoses. Recipient animals were given 20 mg/day prophylactic cefamandole nafate for 3 postoperative days. Transplanted recipients were given water 3 hours after surgery, and were fed 24 hours after surgery.
Motility Studies. The effect of administration of biliverdin on treatment on intestinal dysmotility in transplanted grafts was assessed both in vitro and in vivo. […] In vitro circular muscle mechanical activity was measured as previously described (Eskandari et al., Am. J. Physiol. 273(3 Pt 1):G727-34, 1997). Rats were anesthetized and killed by exsanguination 24 hours post-operatively. A segment of mid-jejunum was pinned in a Sylgaard™ lined dissecting dish containing pre-oxygenated Krebs-Ringer-bicarbonate buffer (KRB; in mM: 137.4 Na^+, 5.9 K^+, 2.5 Ca^2+, 1.2 Mg^2+, 134 Cl^−, 15.5 HCO3^−, 1.2 H2PO4^−, and 11.5 glucose) that was equilibrated with 97% O2/3% CO2. […] Contractile activity was calculated by integrating the area under the trace, normalized by converting the weight and length of the strip to square millimeters of tissue (1.03 mg/mm^2), and reported as g/s/mm^2. […]

[2] = system: NF-κB; assay: EMSA of nuclear extracts, NF-κB DNA binding; type: cell-based; conditions: Jurkat T cells, PMA plus ionomycin, 100 μM biliverdin
Procedure: Nuclear protein extraction and electrophoretic mobility shift assay (EMSA). Jurkat T cells were cultured in 10% FCS supplemented RPMI 1640 with 50 nM phorbol myristyl acetate (PMA) and 2 μM ionomycin (both reagents from ICN Biomedicals) in the presence or absence of 100 μM biliverdin. Following 0, 2, and 4 hrs of stimulation, cells (30×10^6 cells for each group at each time points) were collected, washed twice with PBS, and pelleted. Nuclear and cytoplasmic extracts were prepared according to a modified Shapiro's method (Shapiro et al., DNA 7(1):47-55, 1988). Protein concentrations were determined by the Bradford assay. The following oligonucleotides (Invitrogen, Calsbad, Calif.) were used for EMSA:
NF-κB, (coding) 5′-[…]-3′ (SEQ ID NO:7),
(non-coding) 5′-[…]-[…]-3′ (SEQ ID NO:8).
Oligonucleotides were radioactively labeled with [^32P] ATP. The EMSA reactions were assembled as previously described (Usheva et al., Proc. Natl. Acad. Sci. USA 93(24):13571-6, 1996). Digital images from the EMSA radiographs were obtained using an image scanner.

[3] = system: COX-2; assay: Real time RT-PCR of graft muscularis after SITx, COX-2; type: in vivo, LEW rats; conditions: BV treated rats
Procedure: Small Intestinal Transplantation. Orthotopic small intestinal transplantation (SITx) was performed in syngeneic Lewis rats. SITx with caval drainage was performed using a previously described procedure (Murase et al., in Handbook of Animal Models in Transplantation Research, Cramer et al., Eds. CRC Press, Boca Raton, Fla., pp. 203-213 (1994)). […] The graft was perfused via the aortic segment with 5 ml chilled Ringer's lactate solution, and the intestinal lumen was irrigated with 20 ml of cold saline solution containing 0.5% neomycin-sulfate (Sigma, St. Louis, Mo.). […]
SYBR green real time RT-PCR. The effects of administration of biliverdin on transplant-induced pro-inflammatory and anti-inflammatory gene expression were assessed in muscularis extracts by RT-PCR Biliverdin ([…], i.p.) was administered to both the donor and recipient three hours preoperatively. […] Equal aliquots (5 μg) of total RNA from each sample were quantified by spectrophotometry (wavelength […]) and aliquoted at a concentration of 40 ng/μl. Peak mRNA expression was quantified in duplicate by SYBR Green two-step, real-time RT-PCR. […] Real-time PCR data were plotted as the ΔRn fluorescence signal versus the cycle number. […] Quantification of mRNA expression was normalized to GAPDH and calculated relative to control using the comparative CT method (Schmittgen et al., J. Biochem. Biophys. Methods 46(1-2):69-8, 2000). […]

## C=CC1=C(C)/C(=C/C2=NC(=C\c3[nH]c(/C=C4\NC(=O)C(C)=C4C=C)c(C)c3CCC(=O)O)/C(CCC(=O)O)=C2C)NC1=O [biliverdin, biliverdin dihydrochloride]
[1]; control (unoperated) animals treated with BV
  spontaneous muscle contractile activity: no change
[1]; grafts in recipients treated with BV, compared to untreated transplants, 24 hours
  spontaneous contractile activity: significantly greater
[1]; transplanted animals treated with BV versus untreated graft muscles, 24 hours, listed as BV, dihydrochloride
  bethanechol-stimulated muscle contractility: significantly improved; also recorded: Significant improvement
[2]
  DNA binding of NF-κB: inhibited DNA binding
[3]
  reduction of mean relative COX-2 mRNA expression: approximately 50%
